Source: publication PMC11243066, “Synthesis and Biological Evaluation of Novel Biased Mu-Opioid Receptor Agonists” (Molecules, 2024)
Read-outs that look alike come from different tables or passages of the source.

Columns and labels:
[1] = target: T1, human μ-opioid receptor (Homo sapiens, UniProt P35372); assay: cell-based; assay type: cell-based; settings: CHO/μOR cells; for EC50: cAMP inhibition, "-" = no measurable activity, read-out: EC50 (nM) (95% CI), µOR-Gi/o activation assay; for EC50 / Emax: n = 3; for Emax: at the concentration printed in parentheses in the cell, read-out: Max Effect ± SEM (%), µOR-Gi/o activation assay
T1 construct: expressed in transfected cells; host or cells: CHO (CHO/μOR cells)
Method: The inhibition assay was performed as described previously. In brief, tested compound dilutions (with final concentrations of 100 µM, 50 µM, 10 µM, 1 µM, 500 nM, 100 nM, 50 nM, 10 nM, 1 nM, and 100 pM) were produced in saline or DMSO in triplicate. CHO/μOR cells were suspended in the assay buffer and counted, maintaining a cell density of 2000 cells per well, with 5 µL from each well seeded into a 384-well plate. Subsequently, 5 µL of the tested compound solution per well was dispensed into the plate, which was then placed in a 25 °C incubator and incubated in the dark for 30 min. Next, 10 µL of cAMP standard working solution was added to the empty wells of the plate, followed by the addition of 5 µL of Eu-cAMP and Anti-cAMP per well. The plate was subsequently placed back in a 25 °C incubator and further incubated in the dark for 1 h.
CHO cells expressing the human μ-opioid receptor were cultivated for the assessment of compound effects. […] Cells collected during the exponential phase of growth were dissociated without enzymes to preserve receptor integrity, resuspended in assay buffer, and counted to achieve a uniform concentration. Cell density was adjusted to 2000 cells per well in a 384-well plate, promoting uniform distribution and optimal receptor presence. Post-seeding at 25 °C in darkness facilitated cell adherence and stabilization prior to compound introduction. Compounds were added in serial dilutions, with meticulous dispensing techniques ensuring dose uniformity. Following a 1 h incubation at 25 °C, TR-FRET reagents were applied to measure cAMP levels, indicative of μOR activity. The Envision system recorded these levels, quantifying compound inhibitory effects. Meticulous aseptic techniques and vigilant monitoring were imperative throughout to guarantee data precision from the assay.

[2] = target: T2, human μOR β-arrestin2 pathway (Homo sapiens, UniProt P35372); assay: cell-based; assay type: cell-based; settings: for Emax: read-out: Max Effect ± SEM (%), µOR β-arrestin recruitment assay; for EC50: "-" = no measurable activity, read-out: EC50 (nM) (95% CI), µOR β-arrestin recruitment assay
T2 construct: β-galactosidase enzyme fragment (PathHunter complementation tag); host or cells: U2OS (U2OS/human μOR β-arrestin cells)
Method: In this assay, optical signal values were detected employing the PathHunter® (DiscoverX, Shanghai, China) Detection Kit assay method. The agonistic activity of tested compounds on the human μOR β-arrestin2 pathway was quantified using a β-galactosidase-based enzyme fragment complementation assay. In brief, tested compound dilutions (with final concentrations of 100 μM, 50 μM, 10 μM, 1 μM, 500 nM, 100 nM, 50 nM, 10 nM, 1 nM, and 100 pM) were produced in saline or DMSO in triplicate. Next, 100 nL of the tested compound solution per well was dispensed into a 384-well cell culture plate. The U2OS/human μOR β-arrestin cells were resuspended in Opti-MEM and counted to achieve a cell density of 4000 cells per well, and 20 μL from each well was seeded into the 384-well cell culture plate. The plate was subsequently incubated at 37 °C in the dark for 120 min. Post-incubation, the cell plate was equilibrated to room temperature for 10–20 min, and 5 μL of the detection reagent were added to each well. Following a 60 min incubation at 25 °C, chemiluminescent readings were obtained using the envision system.
The cells were maintained at 37 °C with 5% CO2 in McCoy’s 5a medium with supplements and cultivated utilizing precise techniques to ensure accurate, reproducible results. Cells were gently dissociated for assays to maintain receptor integrity and resuspended in Opti-MEM® for compatibility with the PathHunter® (DiscoverX, Shanghai, China). Detection Kit. Cell density was adjusted to 4000 cells per well in a 384-well plate, to ensure that a uniform monolayer was established for the β-galactosidase assay. After seeding and incubation in the dark at 37 °C to facilitate cell attachment, the plates were equilibrated to room temperature prior to compound treatment. Serial dilutions of the compounds were assessed for pharmacological effect. A detection reagent was then added to measure β-galactosidase activity as indicative of μ-opioid receptor and β-arrestin2 interaction. Following reagent incubation, chemiluminescence was quantified, providing quantitative data on compound agonistic activity. Throughout, meticulous aseptic technique and strict adherence to protocols were imperative to ensure the integrity of the pharmacological data derived from these studies.

[3] = system: mice; assay: Hot-water tail withdrawal test; assay type: in vivo, CD-1 mice; settings: 20 mg/kg i.v. tail vein, 15 min post administration
Method: (§1) Food and water were provided ad libitum.
The hot-water tail withdrawal test was performed as described previously. In brief, the hot-water tail withdrawal test was conducted using a water bath maintained at 55 ± 0.5 °C. The distal 3 cm section of the mouse’s tail was immersed perpendicularly into the hot water. The duration for which the tail remained in the water was recorded as the initial tail withdrawal latency (TWL0). […] Following the administration of a single dose of the test compound (20 mg/kg, i.v.) or vehicle, the subsequent tail withdrawal latency (TWL) was measured at various time intervals (15, 30, 45, 60, and 90 min). To prevent potential tissue damage, a maximum cutoff latency of 16 s was enforced. Antinociception was quantified using the percentage of maximal possible effect (%MPE), calculated as %MPE = 100 × (TWL − TWL0)/(16 − TWL0).

[4] = system: mice; assay: Acetic acid-induced writhing test; assay type: in vivo, CD-1 mice; settings: 20 mg/kg i.v. tail vein
Method: as §1
The acetic acid-induced writhing test was performed as described previously. In brief, after pretreatment with the test compound at a dose of 20 mg/kg via intravenous tail vein injection, 1% (v/v) glacial acetic acid was administered intraperitoneally (i.p.) at a dose of 10 mL/kg. Subsequently, the number of writhing responses over a 20 min period was recorded. The antinociception rate was calculated as the percentage of maximal possible effect (%MPE), where %MPE = 100 × (NWV − NWT)/NWV. NWV and NWT represent the average number of writhing responses of the vehicle and test groups, respectively.

[5] = system: mice; assay: Formalin paw-licking test; assay type: in vivo, CD-1 mice; settings: 20 mg/kg i.v. tail vein, Phase II
Method: as §1
The formalin injection assay was performed as described previously. […] After 15 min, 30 µL of a 2.7% formalin solution was administered into the right hind paw of each mouse. Then, the mice were put into the cage and their behaviors were observed. The antinociception rate was quantified as the percentage of maximal possible effect (%MPE), calculated as %MPE = 100 × (PLTV − PLTT)/PLTV; PLTV and PLTT represent the average paw-licking duration during Phase II for the vehicle and test groups, respectively.

[6] = U2OS/human μOR β-arrestin cells, at the concentration printed in parentheses in the cell, n = 3
[7] = U2OS/human μOR β-arrestin cells, n = 3

T1 sequence (P35372 whole entry): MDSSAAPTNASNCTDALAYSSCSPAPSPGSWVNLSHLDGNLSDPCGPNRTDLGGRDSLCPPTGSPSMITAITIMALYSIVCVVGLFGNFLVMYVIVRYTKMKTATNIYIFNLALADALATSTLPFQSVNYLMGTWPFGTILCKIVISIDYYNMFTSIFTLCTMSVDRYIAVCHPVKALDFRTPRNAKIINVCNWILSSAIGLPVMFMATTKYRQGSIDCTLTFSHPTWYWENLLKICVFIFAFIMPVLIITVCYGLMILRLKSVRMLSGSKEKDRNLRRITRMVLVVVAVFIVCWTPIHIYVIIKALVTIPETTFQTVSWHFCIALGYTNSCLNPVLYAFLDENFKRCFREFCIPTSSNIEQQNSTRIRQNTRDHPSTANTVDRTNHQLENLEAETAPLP
T2 sequence (P35372 whole entry, the tested form may be a part): as the sequence (P35372 whole entry) above

With CN(C)[C@H](CNC(=O)NCCc1ccccc1)Cc1cccc2ccccc12 [6b, (S)-1-(2-(dimethylamino)-3-(naphthalen-1-yl)propyl)-3-phenethyl urea] the EC50 [1] was 110 nM, the Emax [1] was 73.9 ± 2.38% and the Emax [2, 6] was 1.99 ± 1.77%. For the same compound, the EC50 [2, 7] was > 100000 nM and the “pain inhibition rate (%MPE), hot-water tail-withdrawal test” value [3] was 35.89%.
In the case of CN(C)[C@H](CNC(=O)NCc1ccc(F)cc1)Cc1cccc2ccccc12 [6c, (S)-1-(2-(dimethylamino)-3-(naphthalen-1-yl)propyl)-3-(4-fluorobenzyl) urea], the EC50 [1] is reported as 72.8 nM, the Emax [1] is reported as 42.67 ± 0.27% and the Emax [2, 6] is reported as 1.06 ± 0.93%. The EC50 [2, 7] was > 100000 nM.
In the case of CN(C)[C@H](CNC(=O)NCCc1ccc(F)cc1)Cc1cccc2ccccc12 [6d, (S)-1-(2-(dimethylamino)-3-(naphthalen-1-yl)propyl)-3-(4-fluorophenethyl) urea], the EC50 [1] is reported as 88 nM, the Emax [1] is reported as 87.8 ± 1.18% and the Emax [2, 6] is reported as 7.72 ± 2.88%. For the same compound, the EC50 [2, 7] was > 100000 nM.
For COc1ccc(CCNC(=O)NC[C@H](Cc2cccc3ccccc23)N(C)C)cc1 [6e, (S)-1-(2-(dimethylamino)-3-(naphthalen-1-yl)propyl)-3-(4-methoxyphenethyl) urea], the EC50 [1] was > 100000 nM, the Emax [1] was -1.41 ± 5.21% and the Emax [2, 6] was 2.95 ± 1.37%. For the same compound, the EC50 [2, 7] was > 100000 nM.
Cc1ccccc1CCNC(=O)NC[C@H](Cc1cccc2ccccc12)N(C)C [6f, (S)-1-(2-(dimethylamino)-3-(naphthalen-1-yl)propyl)-3-(2-methylphenethyl) urea] was tested, and the “µOR agonist efficacy in Gi/o-protein signaling assay (in words)” value (“µOR agonist efficacy” for short) [1] was “significant µOR agonist efficacy”, the EC50 [1] was 107 nM and the Emax [1] was 84.8 ± 1.86%. The Emax [2, 6] was 5.45 ± 1.75%, the EC50 [2, 7] was > 100000 nM and the “analgesia rate (%MPE), acetic acid-induced writhing” value (shortened to “analgesia rate (%MPE)”) [4] was “exceeding 97%”. The “antinociceptive efficacy (%MPE), formalin-induced paw licking, second phase” value [5] was 59.32%.
In the case of CN(C)[C@H](CNC(=O)Nc1ccccc1)Cc1cccc2ccccc12 [6g, (S)-1-(2-(dimethylamino)-3-(naphthalen-1-yl)propyl)-3-phenyl urea], the “µOR agonist efficacy” value [1] is reported as “significant µOR agonist efficacy”, the EC50 [1] is reported as 59.5 nM and the Emax [1] is reported as 24.6 ± 0.4%. For the same compound, the Emax [2, 6] was 1.12 ± 0.52% and the EC50 [2, 7] was > 100000 nM.
With Cc1ccccc1CNC(=O)NC[C@H](Cc1cccc2ccccc12)N(C)C [6h, (S)-1-(2-(dimethylamino)-3-(naphthalen-1-yl)propyl)-3-(2-methylbenzyl) urea] the “µOR agonist efficacy” value [1] was “significant µOR agonist efficacy”, the EC50 [1] was 13.1 nM and the Emax [1] was 41.7 ± 0.07%. The Emax [2, 6] was 2.19 ± 1.91%, the EC50 [2, 7] was > 100000 nM and the “analgesia rate (%MPE)” value [4] was “exceeding 97%”. The “pain inhibition rate (%MPE), hot-water tail-withdrawal test” value [3] was 41.73% and the “antinociceptive efficacy (%MPE), formalin-induced paw licking, second phase” value [5] was 78.03%.
With Cc1ccccc1NC(=O)NC[C@H](Cc1cccc2ccccc12)N(C)C [6i, (S)-1-(2-(dimethylamino)-3-(naphthalen-1-yl)propyl)-3-(o-tolyl) urea] the EC50 [1] was > 100000 nM, the Emax [1] was 7.1 ± 0.77% and the Emax [2, 6] was 1.96 ± 0.72%. The EC50 [2, 7] was > 100000 nM.
With CN(C)[C@H](CNC(=O)NCc1ccco1)Cc1cccc2ccccc12 [6j, (S)-1-(2-(dimethylamino)-3-(naphthalen-1-yl)propyl)-3-(furan-2-ylmethyl) urea] the “µOR agonist efficacy” value [1] was “significant µOR agonist efficacy”, the EC50 [1] was 97.8 nM and the Emax [1] was 27.2 ± 1.71%. The Emax [2, 6] was 1.63 ± 0.32% and the EC50 [2, 7] was > 100000 nM.
For CN(C)[C@H](CNC(=O)NCC1CCCCC1)Cc1cccc2ccccc12 [6k, (S)-1-(cyclohexylmethyl)-3-(2-(dimethylamino)-3-(naphthalen-1-yl)propyl) urea], the EC50 [1] was > 100000 nM, the Emax [1] was 20.4 ± 10.6% and the Emax [2, 6] was 4.15 ± 0.02%. The EC50 [2, 7] was > 100000 nM and the “analgesia rate (%MPE)” value [4] was “exceeding 97%”.
In the case of CN(C)[C@H](CNC(=O)NC1CCCCC1)Cc1cccc2ccccc12 [6l, (S)-1-cyclohexyl-3-(2-(dimethylamino)-3-(naphthalen-1-yl)propyl) urea], the EC50 [1] is reported as > 100000 nM, the Emax [1] is reported as 18.1 ± 1.81% and the Emax [2, 6] is reported as 1.96 ± 0.45%. The EC50 [2, 7] was > 100000 nM.
Compound C[C@@H](NC(=O)[C@@H](N)Cc1ccc(O)cc1)C(=O)NCC(=O)N(C)[C@@H](Cc1ccccc1)C(=O)NCCO [DAMGO, [D-Ala2, N-MePhe4, Gly-ol]-enkephalin, reference compound] has an Emax ([2]; U2OS) of 91.2%.
